Data published in PMC7677311, “Disrupting Plasmodium UIS3–host LC3 interaction with a small molecule causes parasite elimination from host cells” (Communications Biology, 2020).

Target: T1, UIS3 (PfUIS3) (Plasmodium falciparum, UniProt Q8IEU1)
T1 construct: gene PF3D7_1302200; recombinant His-mycUIS3, His tag cleaved; with LC3
Assay: ITC, C4 ([…]) titrated into a saturated solution of UIS3 with LC3, one-site model
Assay type: binding

T1 sequence (Q8IEU1 entry or part of it): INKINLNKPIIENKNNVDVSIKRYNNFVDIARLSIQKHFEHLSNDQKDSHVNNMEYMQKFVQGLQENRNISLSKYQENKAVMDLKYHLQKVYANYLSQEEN

N#Cc1ccc(C(=O)N2CCN(Cc3ccc(-c4noc(-c5cccc(C(F)(F)F)c5)n4)cc3)CC2)cc1 [C4, 4-{[4-(4-{5-[3-(trifluoromethyl)phenyl]-1,2,4-oxadiazol-3-yl}benzyl)piperazino]carbonyl}benzonitrile]
Kd: 241 nM
